How the values were obtained:
[1] = system: paracetamol (APAP) induced hepatic injury; test: Hepatoprotective activity (in vivo) of synergistic formulation and Silymarin against paracetamol (APAP) induced hepatic injury in mice (prophylactic study); settings: 50 mg/kg p.o. + APAP
Description: All the list materials were administered P.O. routes in a uniform dose level of 50 mg kg-1. Formulation is extremely safe having a therapeutic index of >40. No mortality was recorded up to a dose of 2 g-kg-1 p.o. in mice.

[2] = system: Acetaminophen (APAP) induced hepatic injury; test: Hepatoprotective activity (in vivo) of TCA and silymarin (Pre-treatment), diethyl-ether plus Acetaminophen (APAP) (prophylactic study); design: species or system Mice: Swiss albino; settings: 50 mg/kg p.o. fed at 72 h, 48 h, 24 h, 1 h before diethyl-ether and 1 h after APAP 200 mg/kg i.p.
[3] = After 72 hrs, mostly by urinary excretion; cited from earlier work
[4] = system: Paracetamol (APAP) induced hepatic injury; type: in vivo; settings: prophylactic
Description: […] Formulation is extremely safe having a therapeutic index of >40. No mortality was recorded up to a dose of 2 g-kg-1 p.o. in mice.

[5] = system: restinosis following Angio plasty; settings: animal model, compared with fish oil; cited from earlier work

With CCCCCCCC/C=C/CCCCCCCCCCCCCC(=O)O [TCA, trans-tetracos-15-enoic acid] the “S. Albumin, percent hepatoprotective activity” value [1] was 56.35% and the “Serum Bilirubin, percent hepatoprotective activity” value [2] was 56.35%.
For C=C1CC[C@@H]2[C@](C)(CO)[C@H](O)CC[C@@]2(C)[C@@H]1C/C=C1/C(=O)OC[C@H]1O [AP, andrographolide], the excreted [3] is given as ~90%, the “Hepatic GSH (glutathione)” value ([4]; 50 mg kg−1 + APAP) is given as 4.48 ± 0.25 μmole GSH/g liver and the “Serum TG, percent hepatoprotective activity (in parentheses)” value ([4]; 100 mg kg−1 + APAP) is given as “(63.00) %”. For the same molecule, the “preventing the incidence and severity of restinosis following Angio plasty” value [5] was “twice as effective as fish oil”.

From patent publication US7794753B2, “Synergistic hepatoprotective composition and a method thereof” (Council of Scientific and Industrial Research, priority 2003, dated 2010)
